From PubChem BioAssay AID256 (DTP/NCI, 2004)
Several values for one entry are separate records, joined by “and”; a condition that tells them apart may be missing. Equal values may be shown once. Toxic doses and inconclusive results are not listed. Rule for the calls: active = survival T/C of 150% or more; inactive = T/C below 125% in these data. Non-standard residues stand in square brackets, D forms with d. Residues, ends and D or L forms follow the SMILES beside them. ξ: configuration not given here. ξIva = CCC(C)(N)C(=O)O

Test system: CD2F1 mice, L1210 leukemia ip, survival T/C
Assay: NCI In Vivo Anticancer Drug Screen. Data for tumor model L1210 Leukemia (intraperitoneal) in CD2F1 (CDF1) mice
Conditions: higher = longer survival
Method in brief: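 Vehicle-treated tumor-bearing mice served as controls (C) for compound-treated mice (T). Reported figure is T divided by C.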

[1] = endpoint: median survival time, dose: 50.0 mg/kg/injection, schedule: Q01DX009 (ip), vehicle: saline with Tween-80
[2] = endpoint: median survival time, dose: 100.0 mg/kg/injection, schedule: Q01DX009 (ip), vehicle: saline with Tween-80
[3] = endpoint: mean survival time, dose: 100.0 mg/kg/injection, schedule: Q04DX002 (ip), vehicle: saline
[4] = endpoint: mean survival time, dose: 200.0 mg/kg/injection, schedule: Q04DX002 (ip), vehicle: saline
[5] = endpoint: mean survival time, dose: 400.0 mg/kg/injection, schedule: Q04DX002 (ip), vehicle: saline
[6] = endpoint: mean survival time, dose: 100.0 mg/kg/injection, schedule: Q04DX002 (ip), vehicle: saline with Tween-80
[7] = endpoint: mean survival time, dose: 200.0 mg/kg/injection, schedule: Q04DX002 (ip), vehicle: saline with Tween-80
[8] = endpoint: mean survival time, dose: 200.0 mg/kg/injection, schedule: Q01DX009 (ip), vehicle: saline with Tween-80
[9] = endpoint: mean survival time, dose: 25.0 mg/kg/injection, schedule: Q01DX009 (ip), vehicle: saline with Tween-80
[10] = endpoint: mean survival time, dose: 50.0 mg/kg/injection, schedule: Q01DX009 (ip), vehicle: saline with Tween-80
[11] = endpoint: mean survival time, dose: 100.0 mg/kg/injection, schedule: Q04DX003 (ip), vehicle: Klucel (hydroxypropylcellulose) (HPC)
[12] = endpoint: mean survival time, dose: 200.0 mg/kg/injection, schedule: Q04DX003 (ip), vehicle: Klucel (hydroxypropylcellulose) (HPC)
[13] = endpoint: mean survival time, dose: 400.0 mg/kg/injection, schedule: Q04DX003 (ip), vehicle: Klucel (hydroxypropylcellulose) (HPC)
[14] = endpoint: mean survival time, dose: 100.0 mg/kg/injection, schedule: Q01DX009 (ip), vehicle: saline with Tween-80

Measured: T/C

CCCC1CCC(=C2C(=O)CCC2=O)O1 (centres undefined)
inactive: endpoint: median survival time, dose: 25.0 mg/kg/injection, schedule: Q01DX009 (ip), vehicle: saline with Tween-80 98 % of control | [1] 100 % of control | [2] 100 % of control | endpoint: median survival time, dose: 200.0 mg/kg/injection, schedule: Q01DX009 (ip), vehicle: saline with Tween-80 102 % of control

CCCCCCCCCCCCSCCC(=O)O
inactive: endpoint: mean survival time, dose: 100.0 mg/kg/injection, schedule: Q04DX003 (ip), vehicle: saline 98 % of control | endpoint: mean survival time, dose: 200.0 mg/kg/injection, schedule: Q04DX003 (ip), vehicle: saline 98 % of control | endpoint: mean survival time, dose: 400.0 mg/kg/injection, schedule: Q04DX003 (ip), vehicle: saline 97 % of control

CCCCCCCCC(=O)OCC1OC(n2cnc3c(N)nc(Cl)nc32)CC1O (centres undefined)
inactive: endpoint: median survival time, dose: 80.0 mg/kg/injection, schedule: Q01DX009 (ip), vehicle: saline with Tween-80 97 % of control | [2] 102 % of control
active: endpoint: median survival time, dose: 40.0 mg/kg/injection, schedule: Q01DX009 (ip), vehicle: saline with Tween-80 161 % of control | [1] 344 % of control | endpoint: median survival time, dose: 60.0 mg/kg/injection, schedule: Q01DX009 (ip), vehicle: saline with Tween-80 177 % of control

S=c1nc[nH]c2nc[nH]c12.[W]
active: endpoint: median survival time, dose: 60.0 mg/kg/injection, schedule: Q01DX009 (ip), vehicle: water 151 % of control (2×) and 169 % of control | endpoint: median survival time, dose: 60.0 mg/kg/injection, schedule: Q## X009 (ip), vehicle: water 169 % of control | endpoint: median survival time, dose: 80.0 mg/kg/injection, schedule: Q01DX009 (ip), vehicle: water 164 % of control and 167 % of control (2×) | endpoint: median survival time, dose: 80.0 mg/kg/injection, schedule: Q## X009 (ip), vehicle: water 164 % of control | endpoint: median survival time, dose: 100.0 mg/kg/injection, schedule: Q01DX009 (ip), vehicle: water 154 % of control | endpoint: median survival time, dose: 100.0 mg/kg/injection, schedule: Q01DX009 (other), vehicle: water 154 % of control | endpoint: median survival time, dose: 120.0 mg/kg/injection, schedule: Q01DX009 (ip), vehicle: water 158 % of control (2×) and 164 % of control | endpoint: median survival time, dose: 120.0 mg/kg/injection, schedule: Q01DX009 (other), vehicle: water 164 % of control | endpoint: median survival time, dose: 140.0 mg/kg/injection, schedule: Q01DX009 (ip), vehicle: water 163 % of control | endpoint: median survival time, dose: 140.0 mg/kg/injection, schedule: Q## X009 (ip), vehicle: water 163 % of control | endpoint: median survival time, dose: 160.0 mg/kg/injection, schedule: Q01DX009 (ip), vehicle: water 164 % of control | endpoint: median survival time, dose: 160.0 mg/kg/injection, schedule: Q01DX009 (other), vehicle: water 164 % of control

O=C1c2cc(Cl)ccc2OCC1Cl (centres undefined)
inactive: endpoint: mean survival time, dose: 100.0 mg/kg/injection, schedule: Q01DX001 (ip), vehicle: saline with Tween-80 87 % of control | endpoint: mean survival time, dose: 200.0 mg/kg/injection, schedule: Q01DX001 (ip), vehicle: saline with Tween-80 91 % of control | endpoint: mean survival time, dose: 400.0 mg/kg/injection, schedule: Q01DX001 (ip), vehicle: saline with Tween-80 93 % of control

CCN(CC)CCCNc1nccc2c(C)c3[nH]c4ccncc4c3cc12
active: endpoint: median survival time, dose: 10.0 mg/kg/injection, schedule: Q01DX001 (ip), vehicle: other 157 % of control | endpoint: median survival time, dose: 20.0 mg/kg/injection, schedule: Q01DX001 (ip), vehicle: other 175 % of control
inactive: endpoint: median survival time, dose: 5.0 mg/kg/injection, schedule: Q01DX001 (ip), vehicle: other 124 % of control

CN1C2CCC1CC(O)C2 (centres undefined)
inactive: [3] 109 % of control | [4] 109 % of control | [5] 97 % of control

Clc1ccc(SSc2ccc(Cl)cc2Cl)c(Cl)c1
inactive: [6] 90 % of control | [7] 104 % of control | endpoint: mean survival time, dose: 400.0 mg/kg/injection, schedule: Q04DX002 (ip), vehicle: saline with Tween-80 95 % of control

Nc1nc(F)nc2c1ncn2C1OC(CO)C(O)C1O (centres undefined)
active: endpoint: mean survival time, dose: 111.0 mg/kg/injection, schedule: Q01DX009 (ip), vehicle: saline with Tween-80 187 % of control | endpoint: mean survival time, dose: 133.0 mg/kg/injection, schedule: Q01DX005 (ip), vehicle: saline with Tween-80 154 % of control | endpoint: mean survival time, dose: 133.0 mg/kg/injection, schedule: Q01DX009 (ip), vehicle: saline with Tween-80 227 % of control and 276 % of control | endpoint: mean survival time, dose: 156.0 mg/kg/injection, schedule: Q01DX009 (ip), vehicle: saline with Tween-80 393 % of control | endpoint: mean survival time, dose: 178.0 mg/kg/injection, schedule: Q01DX005 (ip), vehicle: saline with Tween-80 179 % of control | endpoint: mean survival time, dose: 178.0 mg/kg/injection, schedule: Q01DX009 (ip), vehicle: saline with Tween-80 473 % of control | [8] 563 % of control | endpoint: mean survival time, dose: 222.0 mg/kg/injection, schedule: Q01DX009 (ip), vehicle: saline with Tween-80 333 % of control
inactive: endpoint: mean survival time, dose: 100.0 mg/kg/injection, schedule: Q01DX001 (ip), vehicle: other 105 % of control | endpoint: mean survival time, dose: 200.0 mg/kg/injection, schedule: Q01DX001 (ip), vehicle: other 109 % of control | endpoint: mean survival time, dose: 400.0 mg/kg/injection, schedule: Q01DX001 (ip), vehicle: other 105 % of control

CCC(C)(NC(=O)CN)C(=O)O (centres undefined) (H-Gly-[ξIva]-OH)
inactive: [3] 90 % of control | [4] 93 % of control | [5] 90 % of control

O=C(COc1ccccc1)NC(=S)Nc1ccc(Cl)cc1Cl
inactive: [9] 100 % of control | [10] 100 % of control

O=c1[nH]c(=O)n2c3c1nnn3CC1OC2C(O)C1O (centres undefined)
inactive: endpoint: mean survival time, dose: 12.5 mg/kg/injection, schedule: Q01DX005 (ip), vehicle: water 93 % of control | endpoint: mean survival time, dose: 25.0 mg/kg/injection, schedule: Q01DX005 (ip), vehicle: water 93 % of control | endpoint: mean survival time, dose: 50.0 mg/kg/injection, schedule: Q01DX005 (ip), vehicle: water 95 % of control | endpoint: mean survival time, dose: 100.0 mg/kg/injection, schedule: Q01DX005 (ip), vehicle: water 89 % of control | endpoint: mean survival time, dose: 200.0 mg/kg/injection, schedule: Q01DX005 (ip), vehicle: water 95 % of control

N#CCC(N)=S
inactive: endpoint: mean survival time, dose: 12.5 mg/kg/injection, schedule: Q01DX009 (ip), vehicle: saline with Tween-80 112 % of control | [9] 106 % of control | [10] 96 % of control

Cc1ccc(NCCN2CCCCC2)c2c(=O)c3ccccc3sc12
inactive: [11] 93 % of control | [12] 103 % of control | [13] 109 % of control

O=C(CNC(=O)Nc1cccc(C(F)(F)F)c1)NNC(=O)Nc1ccc(Cl)c([N+](=O)[O-])c1
inactive: [14] 89 % of control | [8] 86 % of control

OCC1OC(n2ncc3c(N/N=C/c4ccc(N(CCCl)CCCl)cc4)ncnc32)C(O)C1O (centres undefined)
inactive: [9] 102 % of control | [10] 93 % of control | [14] 102 % of control | [8] 89 % of control | endpoint: mean survival time, dose: 400.0 mg/kg/injection, schedule: Q01DX009 (ip), vehicle: saline with Tween-80 93 % of control

CS(=O)(=O)Nc1ccc2c(c1)C(=O)c1ccccc1C2=O
inactive: [10] 101 % of control | [14] 101 % of control | [8] 97 % of control

COc1ccc(NC(=O)Nc2cc(C)on2)c(Cl)c1
inactive: endpoint: mean survival time, dose: 50.0 mg/kg/injection, schedule: Q01DX009 (ip), vehicle: Klucel (hydroxypropylcellulose) (HPC) 91 % of control | endpoint: mean survival time, dose: 100.0 mg/kg/injection, schedule: Q01DX009 (ip), vehicle: Klucel (hydroxypropylcellulose) (HPC) 95 % of control | [11] 110 % of control | endpoint: mean survival time, dose: 200.0 mg/kg/injection, schedule: Q01DX009 (ip), vehicle: Klucel (hydroxypropylcellulose) (HPC) 98 % of control | [12] 106 % of control | [13] 106 % of control

O=C1NC(=O)C2C3CCC(O3)C12 (centres undefined)
inactive: endpoint: mean survival time, dose: 25.0 mg/kg/injection, schedule: Q01DX009 (ip), vehicle: saline 102 % of control | endpoint: mean survival time, dose: 25.0 mg/kg/injection, schedule: Q04DX002 (ip), vehicle: saline with Tween-80 103 % of control and 97 % of control | endpoint: mean survival time, dose: 50.0 mg/kg/injection, schedule: Q01DX009 (ip), vehicle: saline 105 % of control | endpoint: mean survival time, dose: 50.0 mg/kg/injection, schedule: Q04DX002 (ip), vehicle: saline with Tween-80 98 % of control and 106 % of control | endpoint: mean survival time, dose: 100.0 mg/kg/injection, schedule: Q01DX009 (ip), vehicle: saline 102 % of control | [6] 103 % of control and 101 % of control | [7] 87 % of control

O=C(CNC(=O)Nc1ccc(F)cc1)N/N=C/c1cc(Br)ccc1O
inactive: [10] 100 % of control | [14] 96 % of control | [8] 88 % of control
